# Measurements taken from ChEMBL document CHEMBL5032540, “Design, Synthesis, and Biological Evaluation of Novel EGFR PROTACs Targeting Del19/T790M/C797S Mutation” (ACS Med Chem Lett, 2022).
# Active and inactive are the calls of the source. No cut-off for these calls is given here.
# Legend:
# BaF3 [1] = assay: Induction of EGFR del19/T790M/C797S triple mutant degradation in mouse BaF3 cells at 0.1 uM measured after 3 hrs by Western blot analysis relative to control; format: cell-based
# BaF3 [2] = assay: Induction of EGFR del19/T790M/C797S triple mutant degradation in mouse BaF3 cells at 0.01 uM measured after 3 hrs by Western blot analysis relative to control; format: cell-based
# BaF3 [3] = assay: Antiproliferative activity against mouse BaF3 cells expressing EGFR del19/T790M/C797S triple mutant assessed as cell growth inhibition measured after 72 hrs by CCK8 assay; format: functional, cell-based; settings: BaF3, 72 h
# BaF3 [4] = assay: Induction of EGFR del19/T790M/C797S triple mutant degradation in mouse BaF3 cells at 0.01 to 0.1 uM measured after 3 hrs by Western blot analysis; format: cell-based; settings: dose 0.01-0.1 µM
# HCC827 = assay: Antiproliferative activity against human HCC827 cells expressing EGFR del19 mutant assessed as cell growth inhibition after 72 hrs by CCK-8 assay; format: functional, cell-based; settings: HCC827, 72 h
# BaF3 [5] = assay: Induction of EGFR del19/T790M/C797S triple mutant degradation in mouse BaF3 cells at 0.1 uM preincubated for 3 hrs with EGFR inhibitor 3 followed by compound addition and measured after 3 hrs by Western blot analysis; format: cell-based
# NCI-H1975 = assay: Antiproliferative activity against human NCI-H1975 cells expressing EGFR L858R/T790M double mutant assessed as cell growth inhibition after 72 hrs by CCK-8 assay; format: functional, cell-based; settings: NCI-H1975, 72 h
# [6] = tested on: Epidermal growth factor receptor (Homo sapiens), P00533 [L858R]; assay: Induction of EGFR L858R mutant degradation in human […] cells assessed as decrease in EGFR protein level at 0.005 to 0.5 uM measured after 3 hrs by Western blot assay; format: cell-based; settings: NCI-H3255, dose 0.005-0.5 µM
# [7] = tested on: Epidermal growth factor receptor (Homo sapiens), P00533 [UNDEFINED MUTATION]; assay: Induction of EGFR del19 mutant degradation in human HCC827 cells assessed as decrease in EGFR protein level at 0.005 to 0.5 uM measured after 3 hrs by Western blot assay; format: cell-based; settings: dose 0.005-0.5 µM
# BaF3 [8] = assay: Induction of EGFR del19/T790M/C797S triple mutant degradation in mouse BaF3 cells at 0.1 uM preincubated for 2 hrs with proteosome inhibitor MG132 followed by compound addition and measured after 3 hrs by Western blot analysis; format: cell-based
# BaF3 [9] = assay: Induction of EGFR del19/T790M/C797S triple mutant degradation in mouse BaF3 cells at 0.1 uM preincubated with compound for 3 hrs followed by compound washout and measured after 24 hrs by Western blot analysis; format: cell-based
# NCI-H3255 = assay: Antiproliferative activity against human NCI-H3255 cells expressing L858R mutant assessed as cell growth inhibition after 72 hrs by CCK-8 assay; format: functional, cell-based; settings: NCI-H3255, 72 h
# BaF3 [10] = assay: Inhibition of ERK phosphorylation in mouse BaF3 cells expressing EGFR del19/T790M/C797S triple mutant after 3 hrs by Western blot analysis; format: cell-based; settings: dose 0.001-10 µM
# BaF3 [11] = assay: Induction of EGFR del19/T790M/C797S triple mutant degradation in mouse BaF3 cells at 1 uM after 3 hrs by immunoblotting analysis relative to control; format: cell-based
# BaF3 [12] = assay: Induction of EGFR del19/T790M/C797S triple mutant degradation in mouse BaF3 cells at 0.1 uM measured after 3 to 24 hrs by Western blot analysis; format: cell-based; settings: time 3-24 hrs
# BaF3 [13] = assay: Induction of EGFR del19/T790M/C797S triple mutant degradation in mouse BaF3 cells after 3 hrs by immunoblotting analysis; format: cell-based; settings: dose 0.001-10 µM
# [14] = target: Epidermal growth factor receptor (Homo sapiens) (UniProt P00533); assay: Induction of EGFR degradation in human A-431 cells assessed as decrease in EGFR protein level at 0.005 to 0.5 uM measured after 3 hrs by Western blot assay; format: cell-based; settings: dose 0.005-0.5 µM
# [15] = target: RAC-alpha serine/threonine-protein kinase (Mus musculus) (UniProt P31750); assay: Inhibition of Akt phosphorylation in mouse BaF3 cells expressing EGFR del19/T790M/C797S triple mutant after 3 hrs by Western blot analysis; format: cell-based; settings: dose 0.001-10 µM
# Sequence of RAC-alpha serine/threonine-protein kinase (Mus musculus) (P31750 whole entry, the tested form may be a part): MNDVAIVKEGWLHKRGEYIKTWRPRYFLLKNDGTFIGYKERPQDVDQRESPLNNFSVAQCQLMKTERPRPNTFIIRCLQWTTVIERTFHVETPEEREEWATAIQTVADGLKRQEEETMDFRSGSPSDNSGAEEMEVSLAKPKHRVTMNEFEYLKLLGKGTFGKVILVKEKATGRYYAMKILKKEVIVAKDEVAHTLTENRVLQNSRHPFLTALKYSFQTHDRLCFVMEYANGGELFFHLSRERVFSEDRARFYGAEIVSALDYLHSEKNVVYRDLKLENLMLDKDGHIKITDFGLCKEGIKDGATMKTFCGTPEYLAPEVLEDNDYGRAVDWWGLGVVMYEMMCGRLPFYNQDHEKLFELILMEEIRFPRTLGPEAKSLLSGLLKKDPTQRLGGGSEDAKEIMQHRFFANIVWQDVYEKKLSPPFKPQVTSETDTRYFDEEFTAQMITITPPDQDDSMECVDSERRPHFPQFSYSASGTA
# EML4-ALK (Homo sapiens) = EML4-ALK (Homo sapiens) (UniProt Q9UM73+Q9HC35); assay: Induction of EML4-ALK fusion protein degradation in mouse BaF3 cells at 0.001 to 10 uM after 3 hrs by Western blot analysis; format: cell-based; settings: dose 0.001-10 µM
# Sequence of EML4-ALK (Homo sapiens) (Q9HC35 whole entry partner, the tested form may be a part): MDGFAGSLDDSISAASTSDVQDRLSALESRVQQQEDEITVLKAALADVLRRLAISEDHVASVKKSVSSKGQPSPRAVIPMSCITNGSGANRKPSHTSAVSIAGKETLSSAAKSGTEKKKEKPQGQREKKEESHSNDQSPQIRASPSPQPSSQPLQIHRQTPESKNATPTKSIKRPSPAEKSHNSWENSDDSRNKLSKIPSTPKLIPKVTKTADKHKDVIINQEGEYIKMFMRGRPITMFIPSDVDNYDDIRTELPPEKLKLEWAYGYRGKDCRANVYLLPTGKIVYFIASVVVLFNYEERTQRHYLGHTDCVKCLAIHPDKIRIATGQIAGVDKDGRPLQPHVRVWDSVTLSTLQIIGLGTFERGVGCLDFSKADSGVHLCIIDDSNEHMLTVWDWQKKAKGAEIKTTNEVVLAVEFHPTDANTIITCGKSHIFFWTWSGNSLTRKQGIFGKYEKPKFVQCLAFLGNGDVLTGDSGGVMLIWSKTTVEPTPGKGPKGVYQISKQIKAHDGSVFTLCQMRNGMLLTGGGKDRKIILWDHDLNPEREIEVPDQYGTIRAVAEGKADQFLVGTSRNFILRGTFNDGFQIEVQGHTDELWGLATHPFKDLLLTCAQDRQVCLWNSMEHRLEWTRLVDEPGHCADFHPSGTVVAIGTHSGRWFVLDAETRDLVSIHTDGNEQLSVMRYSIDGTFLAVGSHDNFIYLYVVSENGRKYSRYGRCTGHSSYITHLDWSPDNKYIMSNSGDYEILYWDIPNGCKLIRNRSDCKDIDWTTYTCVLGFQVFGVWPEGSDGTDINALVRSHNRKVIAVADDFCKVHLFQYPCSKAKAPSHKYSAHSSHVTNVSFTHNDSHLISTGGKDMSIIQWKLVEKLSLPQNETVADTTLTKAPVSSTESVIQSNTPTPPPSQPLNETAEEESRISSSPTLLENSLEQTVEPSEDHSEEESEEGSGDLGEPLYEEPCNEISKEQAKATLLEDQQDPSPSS
# Sequence of EML4-ALK (Homo sapiens) (Q9UM73 19-1620 limits assumed): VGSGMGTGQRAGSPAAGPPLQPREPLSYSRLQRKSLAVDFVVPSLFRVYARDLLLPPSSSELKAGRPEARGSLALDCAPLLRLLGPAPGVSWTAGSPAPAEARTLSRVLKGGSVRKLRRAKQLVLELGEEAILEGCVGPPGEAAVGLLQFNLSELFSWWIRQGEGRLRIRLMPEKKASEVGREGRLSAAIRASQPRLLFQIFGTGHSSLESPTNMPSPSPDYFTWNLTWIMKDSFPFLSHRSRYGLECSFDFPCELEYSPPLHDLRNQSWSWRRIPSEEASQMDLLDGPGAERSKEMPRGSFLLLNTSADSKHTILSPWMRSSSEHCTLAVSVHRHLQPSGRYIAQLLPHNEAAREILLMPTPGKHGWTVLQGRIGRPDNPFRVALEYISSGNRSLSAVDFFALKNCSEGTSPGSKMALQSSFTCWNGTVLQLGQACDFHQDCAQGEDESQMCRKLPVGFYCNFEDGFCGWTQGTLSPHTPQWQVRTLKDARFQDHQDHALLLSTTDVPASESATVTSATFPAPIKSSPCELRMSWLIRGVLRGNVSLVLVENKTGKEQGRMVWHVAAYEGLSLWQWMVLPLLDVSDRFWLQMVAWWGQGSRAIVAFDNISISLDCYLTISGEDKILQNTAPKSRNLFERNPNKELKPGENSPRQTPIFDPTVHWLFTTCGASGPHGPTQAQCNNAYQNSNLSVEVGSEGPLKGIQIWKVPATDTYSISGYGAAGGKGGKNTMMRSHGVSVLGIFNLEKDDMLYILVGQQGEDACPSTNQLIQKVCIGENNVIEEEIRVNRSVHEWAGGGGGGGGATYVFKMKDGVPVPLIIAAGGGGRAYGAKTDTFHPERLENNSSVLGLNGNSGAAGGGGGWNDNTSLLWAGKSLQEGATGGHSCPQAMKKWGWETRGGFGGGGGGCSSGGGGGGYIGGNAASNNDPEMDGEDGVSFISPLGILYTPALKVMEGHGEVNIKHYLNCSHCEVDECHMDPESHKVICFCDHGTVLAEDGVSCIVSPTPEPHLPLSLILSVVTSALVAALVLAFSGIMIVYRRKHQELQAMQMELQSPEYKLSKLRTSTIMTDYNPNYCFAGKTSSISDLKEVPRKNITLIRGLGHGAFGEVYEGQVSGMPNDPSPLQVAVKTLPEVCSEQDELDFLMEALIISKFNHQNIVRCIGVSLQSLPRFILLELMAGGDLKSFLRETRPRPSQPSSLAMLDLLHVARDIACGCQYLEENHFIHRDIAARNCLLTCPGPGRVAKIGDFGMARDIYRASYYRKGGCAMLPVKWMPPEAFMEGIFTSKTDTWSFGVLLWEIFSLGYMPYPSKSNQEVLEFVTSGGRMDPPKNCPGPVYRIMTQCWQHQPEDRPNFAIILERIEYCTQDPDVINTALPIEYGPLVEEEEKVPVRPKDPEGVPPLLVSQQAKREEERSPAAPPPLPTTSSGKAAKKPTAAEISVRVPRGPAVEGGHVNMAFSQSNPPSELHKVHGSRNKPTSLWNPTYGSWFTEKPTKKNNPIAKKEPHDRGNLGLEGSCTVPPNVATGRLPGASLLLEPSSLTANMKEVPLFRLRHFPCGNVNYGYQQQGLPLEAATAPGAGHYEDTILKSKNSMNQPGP
# [16] = tested on: Epidermal growth factor receptor (Homo sapiens), P00533 [L858R,T790M]; assay: Induction of EGFR L858R/T790M mutant degradation in human NCI-H1975 cells assessed as decrease in EGFR protein level at 0.005 to 0.5 uM measured after 3 hrs by Western blot assay; format: cell-based; settings: dose 0.005-0.5 µM
# BaF3 [17] = assay: Induction of EGFR del19/T790M/C797S triple mutant degradation in mouse BaF3 cells at 0.1 uM preincubated for 3 hrs with VHL ligand 5 followed by compound addition and measured after 3 hrs by Western blot analysis; format: cell-based
# A-431 = assay: Antiproliferative activity against human A-431 cells expressing wild-type EGFR assessed as cell growth inhibition after 72 hrs by CCK-8 assay; format: functional, cell-based; settings: A-431, 72 h
compound,measurement,setting,value
COc1cc(N2CCN(CCCCCC(=O)N[C@H](C(=O)N3C[C@H](O)C[C@H]3C(=O)N[C@@H](C)c3ccc(-c4scnc4C)cc3)C(C)(C)C)CC2)ccc1Nc1ncc(Cl)c(Nc2ccccc2P(C)(C)=O)n1,Activity,BaF3 [1],75.4%
same,Activity,BaF3 [2],53.7%
same,IC50,BaF3 [3],50 nM
COc1cc(C2CCN(CCCCCC(=O)N[C@H](C(=O)N3C[C@H](O)C[C@H]3C(=O)N[C@@H](C)c3ccc(-c4scnc4C)cc3)C(C)(C)C)CC2)ccc1Nc1ncc(Cl)c(Nc2ccccc2N(C)S(C)(=O)=O)n1,Activity,BaF3 [1],74.1%
same,Activity,BaF3 [2],58.4%
same,IC50,BaF3 [3],70 nM
COc1cc(C2CCN(CCCCCC(=O)N[C@H](C(=O)N3C[C@H](O)C[C@H]3C(=O)N[C@@H](C)c3ccc(-c4scnc4C)cc3)C(C)(C)C)CC2)ccc1Nc1ncc(Cl)c(Nc2ccccc2NS(C)(=O)=O)n1,Activity,BaF3 [1],35.2%
same,Activity,BaF3 [2],14%
same,IC50,BaF3 [3],370 nM
COc1cc(N2CCN(CCCCCCCC(=O)N[C@H](C(=O)N3C[C@@H](O)C[C@H]3C(=O)N[C@@H](C)c3ccc(-c4scnc4C)cc3)C(C)(C)C)CC2)ccc1Nc1ncc(Cl)c(Nc2ccccc2P(C)(C)=O)n1,Activity,BaF3 [4],inactive
COc1cc(N2CCN(CCCCCCCC(=O)N[C@H](C(=O)N3C[C@H](O)C[C@H]3C(=O)N[C@@H](C)c3ccc(-c4scnc4C)cc3)C(C)(C)C)CC2)ccc1Nc1ncc(Cl)c(Nc2ccccc2P(C)(C)=O)n1,IC50,HCC827,229 nM
same,Activity,BaF3 [5],inactive
same,IC50,NCI-H1975,1130 nM
same,Activity,[6],inactive
same,Activity,[7],Active
same,Activity,BaF3 [8],inactive
same,Activity,BaF3 [9],Active
same,IC50,NCI-H3255,604 nM
same,Activity,BaF3 [1],79.1%
same,inhibition,BaF3 [10],Dose-Dependent Effect
same,Activity,BaF3 [11],49.6%
same,Activity,BaF3 [12],Active
same,Activity,BaF3 [13],Dose-Dependent Effect
same,Activity,[14],inactive
same,inhibition,[15],Dose-Dependent Effect
same,Activity,EML4-ALK (Homo sapiens),inactive
same,Activity,[16],inactive
same,Activity,BaF3 [2],52%
same,Activity,BaF3 [17],inactive
same,IC50,BaF3 [3],20 nM
same,IC50,A-431,526 nM
COc1cc(N2CCN(CCCCCC(=O)N[C@H](C(=O)N3C[C@H](O)C[C@H]3C(=O)N[C@@H](C)c3ccc(-c4scnc4C)cc3)C(C)(C)C)CC2)ccc1Nc1ncc(Cl)c(Nc2ccccc2S(=O)(=O)C(C)C)n1,Activity,BaF3 [1],56.9%
same,Activity,BaF3 [2],48.5%
same,IC50,BaF3 [3],240 nM
COc1cc(N2CCN(CCCC(=O)N[C@H](C(=O)N3C[C@H](O)C[C@H]3C(=O)N[C@@H](C)c3ccc(-c4scnc4C)cc3)C(C)(C)C)CC2)ccc1Nc1ncc(Cl)c(Nc2ccccc2P(C)(C)=O)n1,Activity,BaF3 [1],22.7%
same,Activity,BaF3 [2],6.2%
same,IC50,BaF3 [3],370 nM
